Test results from the supplement of paper PMC10307832.

What was measured:
Assay in all cases: relative viability (nuclei count vs DMSO), 5 days (fraction); higher = more cells survive
IMD-0354 + Pemetrexed = compound: O=C(Nc1cc(C(F)(F)F)cc(C(F)(F)F)c1)c1cc(Cl)ccc1O [IMD-0354] + Nc1nc2[nH]cc(CCc3ccc(C(=O)N[C@@H](CCC(=O)O)C(=O)O)cc3)c2c(=O)[nH]1 [Pemetrexed] (partner 0.2 µM)
Outline: (§1)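 Cells from lung cancer lines were seeded into 1536-well plates and, one day later, dosed by pin tool. Treatments were either a single drug or a fixed dose of an anchor drug with five library-drug doses (not always all listed) in √10 steps. After 5 days, nuclei were stained in a one-step fixation (final 0.05% Triton X-100, 1% formaldehyde, 1 ug/ml Hoechst) and counted on 4× images, and relative viability is the treated-to-vehicle nuclei ratio, as the median of duplicate plates.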

IMD-0354 + Alpelisib = compound: O=C(Nc1cc(C(F)(F)F)cc(C(F)(F)F)c1)c1cc(Cl)ccc1O [IMD-0354] + Cc1nc(NC(=O)N2CCC[C@H]2C(N)=O)sc1-c1ccnc(C(C)(C)C(F)(F)F)c1 [Alpelisib] (partner 2 µM)
Outline: as §1

CX-5461 + Phenformin = compound: Cc1cnc(CNC(=O)c2c(=O)c3ccc(N4CCCN(C)CC4)nc3n3c2sc2ccccc23)cn1 [CX-5461] + N=C(N)NC(=N)NCCc1ccccc1 [Phenformin] (partner 250 µM)
Outline: as §1

CX-5461 + Navitoclax = compound: Cc1cnc(CNC(=O)c2c(=O)c3ccc(N4CCCN(C)CC4)nc3n3c2sc2ccccc23)cn1 [CX-5461] + CC1(C)CCC(c2ccc(Cl)cc2)=C(CN2CCN(c3ccc(C(=O)NS(=O)(=O)c4ccc(N[C@H](CCN5CCOCC5)CSc5ccccc5)c(S(=O)(=O)C(F)(F)F)c4)cc3)CC2)C1 [Navitoclax] (partner 0.5 µM)
Outline: as §1

UMC-11
relative viability (IMD-0354 + Pemetrexed; first compound 0.04 µM): 0.819 | relative viability (IMD-0354 + Pemetrexed; first compound 0.1265 µM): 0.692 | relative viability (IMD-0354 + Pemetrexed; first compound 0.4 µM): 0.281 | relative viability (IMD-0354 + Pemetrexed; first compound 1.265 µM): 0.205 | relative viability (IMD-0354 + Pemetrexed; first compound 4 µM): 0.219 | relative viability (IMD-0354 + Alpelisib; first compound 0.04 µM): 0.945 | relative viability (IMD-0354 + Alpelisib; first compound 0.1265 µM): 0.973 | relative viability (IMD-0354 + Alpelisib; first compound 0.4 µM): 0.598 | relative viability (IMD-0354 + Alpelisib; first compound 1.265 µM): 0.235 | relative viability (IMD-0354 + Alpelisib; first compound 4 µM): 0.281 | relative viability (CX-5461 + Phenformin; first compound 0.01 µM): 0.323 | relative viability (CX-5461 + Phenformin; first compound 0.03162 µM): 0.298 | relative viability (CX-5461 + Phenformin; first compound 0.1 µM): 0.246 | relative viability (CX-5461 + Phenformin; first compound 0.3162 µM): 0.293 | relative viability (CX-5461 + Phenformin; first compound 1 µM): 0.217 | relative viability (CX-5461 + Navitoclax; first compound 0.01 µM): 0.319 | relative viability (CX-5461 + Navitoclax; first compound 0.03162 µM): 0.294 | relative viability (CX-5461 + Navitoclax; first compound 0.1 µM): 0.302 | relative viability (CX-5461 + Navitoclax; first compound 0.3162 µM): 0.282 | relative viability (CX-5461 + Navitoclax; first compound 1 µM): 0.23
